Strand notation (5' to 3'): a small letter for the sugar, then the base; units joined by * are phosphorothioate-linked, units joined directly phosphodiester-linked; [ ] holds rarer units or linkages, { } end groups; capitals alone tell only the bases. [ms] = mesyl phosphoramidate linkage; e = 2'-O-(2-methoxyethyl) (MOE); k = constrained ethyl (cEt); [5mC] = 5-methylcytosine; d = 2'-deoxy (DNA)
How the values were obtained:
human APOE RNA [1] = experiment: Activity in APOE C57BL/6NTac-Apoeem7250 knock-in mice, single ICV bolus, 8 weeks (Example 11); assay type: in vivo; details: single ICV bolus 300 μg, 8 weeks post treatment, normalized to mouse Ppia
Method in brief: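 Cortical and spinal cord human APOE RNA quantified by RT-qPCR 8 weeks after a single 300 μg ICV dose in knock-in mice, Ppia-normalized. Values are percent of levels in PBS-treated animals.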

human APOE RNA [2] = experiment: Activity in APOE C57BL/6NTac-Apoeem7250 knock-in mice, single ICV bolus, 16 weeks (Example 12); assay type: in vivo; details: single ICV bolus 300 μg, 16 weeks post treatment, normalized to mouse Ppia
Method in brief: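 A single 300 μg intracerebroventricular dose was given, with PBS-treated mice as reference; cortical and spinal cord tissue was taken 16 weeks later. RT-qPCR quantified human APOE RNA, Ppia-normalized, expressed relative to PBS animals (% control).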

human APOE RNA [3] = experiment: Activity in APOE C57BL/6NTac-Apoeem7250 knock-in mice, single ICV bolus, 4 weeks (Example 10); assay type: in vivo; details: single ICV bolus 300 μg
Method in brief: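 Human APOE RNA, quantified by real-time RT-PCR with RTS3073 and normalized to mouse Ppia, was read in cortical brain and spinal cord 4 weeks post dosing. Dosing was a single ICV bolus of 300 μg per knock-in mouse; values are % of PBS-treated animals.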

human APOE RNA [4] = experiment: Dose-dependent reduction of human APOE RNA in HepG2 cells, electroporation, 20,000 cells per well, average of GAPDH- and PPIA-normalized results (Example 4, Table 12); assay type: cell-based; details: HepG2, 20,000 cells per well; for IC50: approximately 24 hours
Description: HepG2 cells plated at a density of 20,000 cells per well were treated by electroporation with various concentrations of modified oligonucleotide as specified in the tables below. […] APOE RNA levels were measured using the human primer probe set RTS3073 (described herein above). APOE RNA levels were normalized to human GAPDH, and human PPIA. Human GAPDH was amplified using human primer probe set RTS104 (described herein above). Human PPIA was amplified using human primer probe set mk_cycloA_2nd (described herein above) The average of the GAPDH-normalized results and the PPIA-normalized results are presented in the table below as percent APOE RNA, relative to the amount of APOE RNA in untreated control cells (% UTC). The half maximal inhibitory concentration (IC50) of each modified oligonucleotide was calculated in GraphPad Prism 10 (GraphPad Software, San Diego, CA) and is also presented in the table below.

human APOE RNA [5] = experiment: Dose-dependent inhibition of human APOE RNA in differentiated SH-SY5Y cells, free uptake, 5 days (Example 5); assay type: cell-based; details: 5 days (Table 14)
Description: Modified oligonucleotides selected from the examples above were tested at various doses in differentiated SH-SY5Y cells. The modified oligonucleotides were tested in a series of experiments that had the same culture conditions.
Differentiated SH-SY5Y cells plated at a density of 10,000 cells per well were treated by free uptake with various concentrations of modified oligonucleotide as specified in the tables below. […] APOE RNA levels were measured using the human primer probe set RTS3073 (described herein above). APOE RNA levels were normalized to human PPIA. Human PPIA was amplified using human primer probe set mk_cycloA_2nd (described herein above). Results are presented as percent APOE RNA, relative to the amount of APOE RNA in untreated control cells (% UTC). The half maximal inhibitory concentration (IC50) of each modified oligonucleotide was calculated in GraphPad Prism 10 (GraphPad Software, San Diego, CA) and is also presented in the tables below.

human APOE RNA [6] = experiment: Activity in APOE C57BL/6NTac-Apoeem7250 knock-in mice, single ICV bolus, 20 weeks (Example 13); assay type: in vivo; details: single ICV bolus 300 μg, 20 weeks post treatment, normalized to mouse Ppia
Method in brief: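 Cortical and spinal cord RNA was assayed by real-time RT-PCR for human APOE, normalized to mouse Ppia and reported as percent of PBS controls. Tissue was taken twenty weeks after one 300 μg intracerebroventricular bolus in APOE knock-in mice, 4 per group.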

[7] = cortex, 4 weeks post treatment, normalized to mouse Ppia
[8] = spinal cord, 4 weeks post treatment, normalized to mouse Ppia

Row | Substance | APOE RNA (% control) Cortex (human APOE RNA [1]) [% control] | APOE RNA (% control) Spinal Cord (human APOE RNA [1]) [% control] | APOE RNA (% control) Cortex (human APOE RNA [2]) [% control] | APOE RNA (% control) Spinal Cord (human APOE RNA [2]) [% control] | APOE RNA (% control) Cortex (human APOE RNA [3]; [7]) [% control] | APOE RNA (% control) Spinal Cord (human APOE RNA [3]; [8]) [% control] | APOE RNA (% UTC) (human APOE RNA [4]; 5 nM) | APOE RNA (% UTC) (human APOE RNA [4]; 13 nM) | APOE RNA (% UTC) (human APOE RNA [4]; 33 nM) | APOE RNA (% UTC) (human APOE RNA [4]; 82 nM) | APOE RNA (% UTC) (human APOE RNA [4]; 205 nM) | APOE RNA (% UTC) (human APOE RNA [4]; 512 nM) | APOE RNA (% UTC) (human APOE RNA [4]; 1,280 nM) | APOE RNA (% UTC) (human APOE RNA [4]; 3,200 nM) | APOE RNA (% UTC) (human APOE RNA [4]; 8,000 nM) | APOE RNA (% UTC) (human APOE RNA [4]; 20,000 nM) | IC50 (human APOE RNA [4]) [nM] | APOE RNA (% UTC) (human APOE RNA [5]; 5 nM) | APOE RNA (% UTC) (human APOE RNA [5]; 13 nM) | APOE RNA (% UTC) (human APOE RNA [5]; 33 nM) | further results
1 | 1693105: 6-10-4 MOE gapmer CTTGGTGAATCTTTATTAAA, linkages sosssszzzssssszssss (e[5mC]*eTeT*eG*eG*eT*dG[ms]dA[ms]dA[ms]dT*d[5mC]*dT*dT*dT*dA[ms]dT*eT*eA*eA*eA) [compound 1693105] | 58 | 43 | 65 | 44 |  |  |  |  |  |  |  |  |  |  |  |  |  |  |  |  | APOE RNA (% control) Cortex (human APOE RNA [3]; Cortex, C57BL/6NTac-Apoeem7250 knock-in mice, 4 weeks (Table 21)): 54 % control; APOE RNA (% control) Cortex (human APOE RNA [3]; Cortex, C57BL/6NTac-Apoeem7250 knock-in mice, 4 weeks (Table 22)): 65 % control; APOE RNA (% control) Spinal Cord (human APOE RNA [3]; Spinal Cord, C57BL/6NTac-Apoeem7250 knock-in mice, 4 weeks (Table 21)): 51 % control; APOE RNA (% control) Spinal Cord (human APOE RNA [3]; Spinal Cord, C57BL/6NTac-Apoeem7250 knock-in mice, 4 weeks (Table 22)): 87 % control
2 | 1746809 (k[5mC]*dT[ms]kT*dG[ms]kG*dT[ms]dG[ms]dA[ms]dA[ms]dT*d[5mC]*dT*dT*dT*dA[ms]dT*dT[ms]kA*kA*kA; antisense) [Compound 1746809] | 47 | 44 |  |  | 36 | 59 | 97 | 94 | 86 | 72 | 59 | 34 | 28 | 11 | 15 | 10 | 310 | 93 | 118 | 80 | APOE RNA (% UTC) (human APOE RNA [5]; 82 nM): 68 % UTC; APOE RNA (% UTC) (human APOE RNA [5]; 205 nM): 77 % UTC; APOE RNA (% UTC) (human APOE RNA [5]; 512 nM): 57 % UTC; APOE RNA (% UTC) (human APOE RNA [5]; 1,280 nM): 31 % UTC; APOE RNA (% UTC) (human APOE RNA [5]; 3,200 nM): 34 % UTC; APOE RNA (% UTC) (human APOE RNA [5]; 8,000 nM): 12 % UTC; APOE RNA (% UTC) (human APOE RNA [5]; 20,000 nM): 8 % UTC; IC50 (human APOE RNA [5]): 660 nM
3 | 1757575 (eA*e[5mC]eTeT*kG*kG*dT*dG[ms]dA[ms]dA[ms]dT*d[5mC]*dT*dT*dT*dA[ms]kT*eT*eA*eA; antisense) [Compound 1757575] | 35 | 32 | 33 | 21 | 38 | 27 | 92 | 96 | 93 | 81 | 72 | 47 | 34 | 27 | 10 | 5 | 570 | 44 | 56 | 39 | APOE RNA (% UTC) (human APOE RNA [5]; 82 nM): 50 % UTC; APOE RNA (% UTC) (human APOE RNA [5]; 205 nM): 34 % UTC; APOE RNA (% UTC) (human APOE RNA [5]; 512 nM): 30 % UTC; APOE RNA (% UTC) (human APOE RNA [5]; 1,280 nM): 26 % UTC; APOE RNA (% UTC) (human APOE RNA [5]; 3,200 nM): 23 % UTC; APOE RNA (% UTC) (human APOE RNA [5]; 8,000 nM): 12 % UTC; APOE RNA (% UTC) (human APOE RNA [5]; 20,000 nM): 11 % UTC; IC50 (human APOE RNA [5]): 10 nM; APOE RNA (% control) Cortex (human APOE RNA [6]; cortex): 39 % control; APOE RNA (% control) Spinal Cord (human APOE RNA [6]; spinal cord): 88 % control

— patent US20250353873A1, “COMPOUNDS AND METHODS FOR MODULATING APOE EXPRESSION” (Ionis Pharmaceuticals, Inc., priority 2024, published 2025)
